The target of the assay is T1, Kir3.1/3.2 (Homo sapiens, UniProt P48051+P48549).
T1 construct: expressed in transfected cells
T1 sequence (P48549 1-501): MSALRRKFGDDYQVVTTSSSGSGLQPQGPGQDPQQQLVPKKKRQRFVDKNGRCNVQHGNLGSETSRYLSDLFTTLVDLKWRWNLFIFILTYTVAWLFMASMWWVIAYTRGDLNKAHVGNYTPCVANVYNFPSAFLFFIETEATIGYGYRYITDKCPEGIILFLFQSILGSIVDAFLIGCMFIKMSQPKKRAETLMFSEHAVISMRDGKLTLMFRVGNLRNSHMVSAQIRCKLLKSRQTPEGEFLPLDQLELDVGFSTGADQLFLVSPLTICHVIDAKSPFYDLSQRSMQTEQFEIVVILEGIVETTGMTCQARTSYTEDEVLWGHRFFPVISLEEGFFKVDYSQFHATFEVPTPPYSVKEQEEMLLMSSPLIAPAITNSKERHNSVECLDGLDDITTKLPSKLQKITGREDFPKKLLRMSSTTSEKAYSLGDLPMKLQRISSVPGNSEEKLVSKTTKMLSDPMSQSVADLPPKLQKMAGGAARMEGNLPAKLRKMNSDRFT
T1 sequence (P48051 1-423): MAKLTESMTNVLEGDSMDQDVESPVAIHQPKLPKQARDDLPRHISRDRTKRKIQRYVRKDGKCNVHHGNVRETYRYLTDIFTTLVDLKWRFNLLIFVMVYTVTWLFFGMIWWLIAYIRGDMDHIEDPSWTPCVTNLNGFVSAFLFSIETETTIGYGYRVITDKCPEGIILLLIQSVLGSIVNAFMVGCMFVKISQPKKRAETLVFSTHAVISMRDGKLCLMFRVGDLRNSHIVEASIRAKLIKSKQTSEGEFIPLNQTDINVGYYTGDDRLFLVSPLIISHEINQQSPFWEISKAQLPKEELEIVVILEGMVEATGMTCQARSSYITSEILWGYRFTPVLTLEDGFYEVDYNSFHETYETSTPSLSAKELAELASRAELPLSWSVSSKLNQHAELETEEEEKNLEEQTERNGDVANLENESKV
Briefly: Tl+ flux selectivity assay, Kir3.1/3.2. The assay is classed as cell-based. As to conditions: Kir3.1/3.2 (with mGlu8, EC80 glutamate); n = 2 independent experiments in triplicate; read-out: Inhibition of Tl+ flux (IC50). On the procedure:
[Worded in the source for another target; used here, by the source, with some conditions changed.] Tl^+ flux assays were performed essentially as described previously, [18], [19]. Briefly, stably transfected T-Rex-HEK-293 cells expressing AeKir1 channels were cultured overnight in 384-well plates (20,000 cells/20 µL/well black-walled, clear-bottomed BD PureCoat amine-coated plates (BD, Bedford, MA) with a plating media containing DMEM, 10% dialyzed FBS and 1 µg/mL tetracycline. The next day, the cell culture medium was replaced with a dye-loading solution containing assay buffer (Hanks Balanced Salt Solution with 20 mM HEPES, pH 7.3), 0.01% (w/v) Pluronic F-127 (Life Technologies, Carlsbad, CA), and 1.2 µM of the thallium-sensitive dye Thallos-AM (TEFlabs, Austin, TX). Following 1 hr incubation at room temperature, the dye-loading solution was washed from the plates and replaced with 20 µL/well of assay buffer. […] Tl^+ flux data were analyzed as previously described, [21], [22] using a combination of Excel (Microsoft Corp, Redmond, WA) with XLfit add-in (IDBS, Guildford, Surrey, UK) and OriginPro (OriginLab, Northampton, MA) software. […] The slope of the fluorescence increase beginning 5 s after Tl^+ addition and ending 15 s after Tl^+ addition was calculated.

The source of these data is article PMC4222822, “Discovery and Characterization of a Potent and Selective Inhibitor of Aedes aegypti Inward Rectifier Potassium Channels” (PLoS ONE, 2014).

What is called IC50 is the midpoint of a concentration-inhibition curve. Regarding `CCC(=O)N1c2ccc(S(=O)(=O)Nc3cccc(OC)c3)cc2CC1C` (stereo not shown) [VU625, N-(3-methoxyphenyl)-2-methyl-1-propionylindoline-5-sulfonamide], the IC50 worked out at 8.6 µM.
